Common to all, as to format: cell-based
The target in assay [1] is T1, human SVCT1 (Homo sapiens, UniProt Q9UHI7).
T1 construct: expressed in transfected cells; host or cells: Xenopus laevis oocytes injected with cRNA (vector pTLN2)
The experiment in a line: L-[14C]ascorbic acid radiotracer uptake in Xenopus oocytes expressing human SVCT1. Here is the method:
Functional characterization in Xenopus oocytes—SVCT1 and SVCT2 cDNAs were subcloned into the pTLN2 vector (to improve functional expression in oocytes) and used for cRNA synthesis in vitro using the MEGAscript kit and T7 RNA polymerase (from Ambion). Oocytes were isolated from Xenopus laevis, treated with collagenase A and maintained at 18° C. in modified Barths' medium. Oocytes were injected with 15 ng SVCT1 or SVCT2 cRNA or water only. The radiotracer uptake and voltage-clamp experiments described below were conducted 2-5 days post-injection in standard medium of composition 100 mM NaCl, 2 mM KCl, 1 mM CaCl2, 1 mM MgCl2, and 10 mM HEPES (buffered to pH 7.5 with Tris base). For low-Na^+ or Na^+-free media, NaCl was replaced with choline chloride. For pH-dependence experiments, Na^+ media were buffered to between pH 5.5 and pH 8.0 using 0-5 mM MES, 0-5 mM HEPES and 0-5 mM Tris base. L-Ascorbic acid-containing solutions were always freshly prepared and used immediately. […] Oocytes were solubilized with 10% SDS and carbon-14 content measured by liquid scintillation counting. A two-microelectrode voltage-clamp was used to measure currents associated with SVCT1 expressed in oocytes. Oocytes were superfused at 22° C. in standard Na^+ medium and clamped at −50 mV. Current was continuously monitored by sampling at 1 Hz. Test solutions were always washed out with substrate-free, Na^+-free medium at pH 7.5 for several minutes. Once again, saturation kinetics data were fit to a modified Hill equation in which I and Imax were replaced by uptake V and maximal velocity Vmax for analysis of radiotracer uptake data.

The target in assay [2] is T1, human SVCT1. The assay can be described thus: Two-microelectrode voltage-clamp of Xenopus oocytes expressing human SVCT1. The procedure:
(§1) Functional characterization in Xenopus oocytes—SVCT1 and SVCT2 cDNAs were subcloned into the pTLN2 vector (to improve functional expression in oocytes) and used for cRNA synthesis in vitro using the MEGAscript kit and T7 RNA polymerase (from Ambion). Oocytes were isolated from Xenopus laevis, treated with collagenase A and maintained at 18° C. in modified Barths' medium. Oocytes were injected with 15 ng SVCT1 or SVCT2 cRNA or water only. The radiotracer uptake and voltage-clamp experiments described below were conducted 2-5 days post-injection in standard medium of composition 100 mM NaCl, 2 mM KCl, 1 mM CaCl2, 1 mM MgCl2, and 10 mM HEPES (buffered to pH 7.5 with Tris base). For low-Na^+ or Na^+-free media, NaCl was replaced with choline chloride. For pH-dependence experiments, Na^+ media were buffered to between pH 5.5 and pH 8.0 using 0-5 mM MES, 0-5 mM HEPES and 0-5 mM Tris base. L-Ascorbic acid-containing solutions were always freshly prepared and used immediately. Radiotracer uptake was determined by incubating 8-12 oocytes for 30 min (within the time-course of linear uptake) in standard Na^+, low-Na^+ or Na^+-free media with 10-500 μM L-[1-^14C]ascorbic acid (final specific activity ≈0.3 GBq/mmol). Oocytes were solubilized with 10% SDS and carbon-14 content measured by liquid scintillation counting. A two-microelectrode voltage-clamp was used to measure currents associated with SVCT1 expressed in oocytes. Oocytes were superfused at 22° C. in standard Na^+ medium and clamped at −50 mV. Current was continuously monitored by sampling at 1 Hz. Test solutions were always washed out with substrate-free, Na^+-free medium at pH 7.5 for several minutes. Once again, saturation kinetics data were fit to a modified Hill equation in which I and Imax were replaced by uptake V and maximal velocity Vmax for analysis of radiotracer uptake data.

A further assay concerns the target T2, human SVCT2 (Homo sapiens, UniProt Q9UGH3, A167T).
T2 construct: expressed in transfected cells; host or cells: Xenopus laevis oocytes injected with cRNA (vector pTLN2)
The assay can be described thus: L-[14C]ascorbic acid radiotracer uptake in Xenopus oocytes expressing human SVCT2. The procedure: as §1

A value given as a limit tells only on which side of the number the result lay.

T2 sequence (Q9UGH3 whole entry A167T): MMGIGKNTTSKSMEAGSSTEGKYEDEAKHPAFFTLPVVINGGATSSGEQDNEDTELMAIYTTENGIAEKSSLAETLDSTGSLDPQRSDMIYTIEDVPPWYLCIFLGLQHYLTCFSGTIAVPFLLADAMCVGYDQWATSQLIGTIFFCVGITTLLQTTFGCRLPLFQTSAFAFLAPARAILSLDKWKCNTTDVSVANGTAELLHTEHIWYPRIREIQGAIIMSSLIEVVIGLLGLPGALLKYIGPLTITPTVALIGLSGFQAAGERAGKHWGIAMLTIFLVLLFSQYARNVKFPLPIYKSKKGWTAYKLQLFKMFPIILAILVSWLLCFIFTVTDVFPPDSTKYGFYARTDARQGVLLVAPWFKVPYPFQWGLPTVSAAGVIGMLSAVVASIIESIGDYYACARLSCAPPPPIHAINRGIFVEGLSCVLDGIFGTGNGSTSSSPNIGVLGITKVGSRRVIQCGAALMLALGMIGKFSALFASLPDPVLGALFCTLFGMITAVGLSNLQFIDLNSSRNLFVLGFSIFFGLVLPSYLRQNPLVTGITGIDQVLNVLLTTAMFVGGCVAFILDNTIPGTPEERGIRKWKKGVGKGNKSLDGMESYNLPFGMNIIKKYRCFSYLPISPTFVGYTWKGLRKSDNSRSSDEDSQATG
T1 sequence (Q9UHI7 whole entry): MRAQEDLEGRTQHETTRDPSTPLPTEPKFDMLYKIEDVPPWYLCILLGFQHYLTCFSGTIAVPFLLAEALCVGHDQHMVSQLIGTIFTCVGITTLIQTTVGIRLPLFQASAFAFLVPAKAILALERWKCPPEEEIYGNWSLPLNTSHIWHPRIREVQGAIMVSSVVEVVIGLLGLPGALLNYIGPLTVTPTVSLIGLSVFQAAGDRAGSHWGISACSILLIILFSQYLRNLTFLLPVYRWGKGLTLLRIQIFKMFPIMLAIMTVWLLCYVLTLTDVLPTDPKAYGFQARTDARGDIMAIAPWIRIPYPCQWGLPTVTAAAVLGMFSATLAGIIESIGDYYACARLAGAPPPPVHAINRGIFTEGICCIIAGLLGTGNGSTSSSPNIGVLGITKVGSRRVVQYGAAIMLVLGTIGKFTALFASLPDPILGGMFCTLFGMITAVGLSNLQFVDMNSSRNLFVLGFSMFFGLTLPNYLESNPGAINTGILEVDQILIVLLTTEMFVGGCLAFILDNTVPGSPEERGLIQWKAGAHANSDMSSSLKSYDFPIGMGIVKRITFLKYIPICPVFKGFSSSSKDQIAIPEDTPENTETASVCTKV

As to `O=C1O[C@H]([C@@H](O)CO)C(O)=C1O` [L-ascorbic acid], at human SVCT1 [1] (500 μM L-[14C]ascorbic acid), the “stimulation of uptake compared with water-injected control oocytes” value is 200 fold and the “uptake of L-[14C]ascorbic acid” value is 15.5±1.2 pmol/min per oocyte. Further, the “Hill coefficient (nH)” value on human SVCT1 [1] (radiotracer uptake) is given as about 1. The “half-maximal concentration (K0.5) of uptake” value at human SVCT1 [1] (radiotracer uptake, Michaelis-Menten-type saturation) is recorded as “≈ 90 μM”. In addition, the “reduction in current at pH 5.5 compared with pH 7.5” value on human SVCT1 [2] (500 μM L-ascorbic acid, −50 mV) is over 60%. For the same compound, the L-ascorbic acid-evoked current at human SVCT1 [2] (500 μM, −50 mV, mean±SEM from eight oocytes) was −114±20 nA. In addition, the “L-ascorbic acid-evoked reversible inward currents” value on human SVCT1 [2] (in the presence of extracellular Na^+) is listed as “up to −150 nA”. Also, the “K0.5 based on evoked currents” value on human SVCT1 [2] (−50 mV, 100 mM Na^+, mean±propagated SEM from 5 oocytes) came to 54 ± 10 µM. In addition, on human SVCT2, the “stimulation of uptake compared with control oocytes” value was found to be 15 fold and the “uptake of L-[14C]ascorbic acid” value worked out at 1.2±0.1 pmol/min per oocyte. Further, the “K0.5 of L-[14C]ascorbic acid transport” value at human SVCT2 (radiotracer uptake, FIG. 10) is 65 µM. At human SVCT2 (saturating concentration), the “inhibition of the uptake of 100 μM L-[14C]ascorbic acid (in words)” value is “inhibited”.

Values taken from patent publication US7371536B2, “Methods for transporting vitamin C” (priority 1999, dated 2008).
